According to article PMC10766962 (Nature Communications, 2024):
Positions of bridges follow the written chain, without caps; N, C: chain ends. Non-standard residues stand in square brackets, D forms with d. Residues, ends and D or L forms follow the SMILES beside them. Groups on a side chain read outwards from the residue. *: point of attachment. Acetyl(2-S-cholesteryl) = CC(C)CCC[C@@H](C)[C@H]1CC[C@H]2[C@@H]3CC=C4C[C@@H](SCC(=O)*)CC[C@]4(C)[C@H]3CC[C@]12C; PEG16 = NCCOCCOCCOCCOCCOCCOCCOCCOCCOCCOCCOCCOCCOCCOCCOCCOCCC(=O)O; R8 = C=CCCCCCC[C@@](C)(N)C(=O)O; S5 = C=CCCC[C@](C)(N)C(=O)O

Experiments:
[1] = system: GFP-RSV live virus (RSV A2)

`CC[C@H](C)[C@H](NC(=O)[C@H](CO)NC(=O)[C@H](C)NC(=O)[C@H](CC(=O)O)NC(=O)[C@H](Cc1ccccc1)NC(C)=O)C(=O)N[C@@H](CO)C(=O)N[C@@H](CCC(N)=O)C(=O)N[C@H](C(=O)N[C@@H](CC(N)=O)C(=O)N[C@@H](CCC(=O)O)C(=O)N[C@@H](CCCCN)C(=O)N[C@H](C(=O)N[C@@H](CC(N)=O)C(=O)N[C@@H](CCC(N)=O)C(=O)N[C@@H](CO)C(=O)N[C@@H](CC(C)C)C(=O)N[C@]1(C)CCCCCCC=CCCC[C@@](C)(C(=O)N[C@@H](CC(C)C)C(=O)N[C@@H](CC(C)C)C(=O)N[C@@H](Cc2c[nH]cn2)C(=O)N[C@@H](CC(N)=O)C(=O)N[C@H](C(=O)N[C@@H](CCCCNC(=O)CCOCCOCCOCCOCCOCCOCCOCCOCCOCCOCCOCCOCCOCCOCCOCCOCCNC(=O)CS[C@H]2CC[C@@]3(C)C(=CC[C@H]4[C@@H]5CC[C@H]([C@H](C)CCCC(C)C)[C@@]5(C)CC[C@@H]43)C2)C(N)=O)C(C)C)NC(=O)[C@H](CC(=O)O)NC(=O)[C@H](CO)NC(=O)[C@H](CCCCN)NC(=O)[C@H](CCCNC(=N)N)NC(=O)[C@H]([C@@H](C)CC)NC(=O)[C@H](Cc2ccccc2)NC1=O)[C@@H](C)CC)C(C)C` [SLI-RSV] (Ac-FDASISQVNEKINQSL[R8]FIRKSD[S5]LLHNVK([PEG16-Acetyl(2-S-cholesteryl)])-NH2; staple 17-24) was tested, and the IC50 [1] was 58 nM and the cytotoxicity (A549 cells) was “no cytotoxicity”.
